The record followed here is US11746085B2, “Triphenylsulfonium salt compound, and uses thereof” (Changzhou Tronly Advanced Electronic Materials Co., Ltd., priority 2018, dated 2023).

The structures appear in SMILES notation.

The first data set can be described thus: Dissolution performance test: solubility in 3-ethyl-3-hydroxymethyl oxetane monomer. The class given is physicochemical. Conditions: Table 3; maximum number of grams dissolved in 100 g 3-ethyl-3-hydroxymethyl oxetane monomer at 20° C. How it is done:
The solubility in 3-ethyl-3-hydroxymethyl oxetane monomer was tested for Compound A-1 to A-38 and C-1 to C-25, and comparative compounds B-1 and B-2 as well as D-1 and D-2 in the present invention, calculated based on the maximum number of grams dissolved in 100 g solvent at 20° C.
In turn, `Cc1ccc([S+](c2ccc(C)c(F)c2)c2ccc3oc4ccccc4c3c2)cc1F` [Compound A-24] gave a Solubility of 23.1 g.

The compound `CC(=O)c1ccc([S+](c2ccccc2)c2ccc(C)c(C#N)c2)cc1` (centres unmarked) [Compound A-7] yielded a Solubility of 20.6 g.

`Cc1ccc([S+](c2ccc(Oc3ccccc3)cc2)c2ccc(C)c(F)c2)cc1F` [Compound A-13] registered a Solubility of 23.8 g.

The compound `Cc1ccc([S+](c2ccc(Sc3ccccc3)cc2)c2ccc(C)c(C(=O)Cl)c2)cc1C(=O)Cl` [Compound A-19] had a Solubility of 24.3 g.

Take `COc1ccc([S+](c2ccc(Sc3ccccc3)cc2)c2ccc(OC)c(F)c2)cc1F` [Compound A-35]: the Solubility is 24.8 g.

In turn, `Cc1ccc([S+](c2ccc(C)c(C#N)c2)c2ccc(C)c(C#N)c2)cc1C` [Compound A-18] had a Solubility of 23.2 g.

Compound `Cc1ccc([S+](c2ccc(OCCO)cc2)c2ccc(C)c(F)c2)cc1F` [Compound A-9] displayed a Solubility of 24.3 g.

Compound `Cc1ccc([S+](c2ccccc2)c2ccccc2)cc1C(F)(F)F` [Compound A-6] returned a Solubility of 19.2 g.

Compound `CC(=O)c1cc([SH](c2ccc(Sc3ccccc3)cc2)c2ccc(C)c(C(C)=O)c2)ccc1C` [Compound A-16] returned a Solubility of 22.6 g.

For `Cc1ccc([S+](c2ccc(C)c(F)c2)c2ccc(C)c(F)c2)cc1` [Compound A-3], the Solubility was 22.5 g.

Regarding `Cc1ccc([S+](c2ccccc2)c2ccccc2)cc1F` [Compound A-4], the Solubility came to 19.5 g.

`Fc1ccc([S+](c2ccccc2)c2ccccc2)cc1F` [Compound A-5] displayed a Solubility of 19.1 g.

Compound `Cc1ccc([S+](c2ccc(/C=C/c3ccccc3)cc2)c2ccc(C)c(F)c2)cc1F` [Compound A-37] returned a Solubility of 22.4 g.

With `Cc1ccc([S+](c2ccc(-c3ccccc3)cc2)c2ccc(C)c(F)c2)cc1F` [Compound A-15], the Solubility is 23.4 g.

On to `Cc1ccc([S+](c2ccccc2)c2ccccc2)cc1` [Compound B-2, reference compound], for which the Solubility was found to be 20.6 g.

For the compound `Cc1ccc(-[s+]2c3ccccc3c(=O)c3cc(C(C)C)ccc32)cc1F` (centres unmarked) [Compound A-2], the Solubility was 23.5 g.

`Cc1ccc([SH](c2ccc(C)c(F)c2)c2ccc(C)c(F)c2)cc1F` [Compound A-10] yielded a Solubility of 23.8 g.

Consider `COc1ccc([S+](c2ccc(C)c(F)c2)c2ccc(C)c(F)c2)cc1` [Compound A-1], for which the Solubility came out at 25.7 g.

Consider `Cc1ccc([S+](c2ccccc2)c2ccc(-c3ccccc3)cc2)cc1F` (centres unmarked) [Compound A-21], for which the Solubility turned out to be 20.1 g.

In turn, `CCc1ccc([S+](c2ccc(OCCO)cc2)c2ccc(CC)c([N+](=O)[O-])c2)cc1[N+](=O)[O-]` [Compound A-32] displayed a Solubility of 28.2 g.

`Cc1ccc([S+](c2ccc(C)c(F)c2)c2ccc(C)c(F)c2)cc1` [Compound A-11] registered a Solubility of 21.6 g.

In turn, `Cc1ccc([S+](c2ccc(Cc3ccccc3)cc2)c2ccc(C)c(F)c2)cc1F` [Compound A-14] registered a Solubility of 23.5 g.

Consider `Cc1ccc([S+](c2ccccc2)c2ccc(/C=C/c3ccccc3)cc2)cc1F` (centres unmarked) [Compound A-38], for which the Solubility amounted to 23.5 g.

For `Fc1ccc([S+](c2ccccc2)c2ccc(Sc3ccccc3)cc2)cc1F` (centres unmarked) [Compound A-20], the Solubility is recorded as 19.8 g.

Consider `COc1ccc([S+](c2ccc(C(C)=O)cc2)c2ccc(C(C)=O)cc2)cc1F` [Compound A-8], for which the Solubility came to 23.4 g.

Turning to `CCc1ccc([S+](c2ccc(OC)cc2)c2ccc(CC)c(F)c2)cc1F` [Compound A-28], the Solubility turned out to be 26.4 g.

Consider `Fc1cc([S+](c2ccc(Sc3ccccc3)cc2)c2ccc(Cc3ccccc3)c(F)c2)ccc1Cc1ccccc1` [Compound A-36], for which the Solubility is reported as 23.2 g.

The compound `CCc1ccc([S+](c2ccc(OC)cc2)c2ccc(CC)c(C(F)(F)F)c2)cc1C(F)(F)F` [Compound A-31] displayed a Solubility of 27.6 g.

In the case of `Cc1ccc([S+](c2ccc(Sc3ccccc3)cc2)c2ccc(C)c([N+](=O)[O-])c2)cc1[N+](=O)[O-]` [Compound A-27], the Solubility turned out to be 22.3 g.

`Cc1ccc([S+](c2ccc(C)c(F)c2)c2ccc3c(c2)Cc2ccccc2-3)cc1F` [Compound A-22] showed a Solubility of 22.3 g.

For the compound `Cc1ccc([SH](c2ccc(Sc3ccc(C(=O)c4ccccc4)cc3)cc2)c2ccc(C)c(F)c2)cc1F` [Compound A-30], the Solubility is given as 27.8 g.

Still in this data set, the particulars now being: Table 4; maximum number of grams dissolved in 100 g 3-ethyl-3-hydroxymethyl oxetane monomer at 20° C.
`Cc1ccc([S+](c2ccc(Sc3ccc([S+](c4ccc(C)c(F)c4)c4ccc(C)c(F)c4)cc3)cc2)c2ccc(C)c(F)c2)cc1F` [Compound C-1] returned a Solubility of 24.4 g.

Take `Cc1ccc([S+](c2ccc(C)c(F)c2)c2ccc3c(c2)sc2cc([S+](c4ccc(C)c(F)c4)c4ccc(C)c(F)c4)ccc23)cc1F` [Compound C-24]: the Solubility is given as 23.5 g.

Compound `Cc1ccc([S+](c2ccccc2)c2ccc(Sc3ccc([S+](c4ccccc4)c4ccc(C)cc4)cc3)cc2)cc1` [Compound D-2, reference compound] returned a Solubility of 19.3 g.

`Cc1ccc([S+](c2ccc(Sc3ccc([S+](c4ccc(C)c(F)c4)c4ccc(C)c(F)c4)cc3C)c(C)c2)c2ccc(C)c(F)c2)cc1F` [Compound C-12] yielded a Solubility of 25.3 g.

The compound `Cc1ccc([S+](c2ccccc2)c2ccc(Sc3ccc([S+](c4ccccc4)c4ccc(C)c(F)c4)cc3)cc2)cc1F` (centres unmarked) [Compound C-17] gave a Solubility of 21.5 g.

Consider `Fc1cccc([S+](c2ccccc2)c2ccc(Sc3ccc([S+](c4ccccc4)c4cccc(F)c4)cc3)cc2)c1` [Compound D-1, reference compound], for which the Solubility worked out at 11.5 g.

In turn, `Cc1ccc([S+](c2ccc(-c3ccc([S+](c4ccc(C)c(C#N)c4)c4ccc(C)c(C#N)c4)cc3)cc2)c2ccc(C)c(C#N)c2)cc1C#N` [Compound C-11] yielded a Solubility of 21.0 g.

With `Cc1ccc([SH](c2ccc(C)c(F)c2)c2ccc3c(c2)oc2cc([SH](c4ccc(C)c(F)c4)c4ccc(C)c(F)c4)ccc23)cc1F` [Compound C-23], the Solubility is listed as 23.6 g.

Compound `Cc1ccc([S+](c2ccc(Sc3ccc([S+](c4ccc(C)c(C#N)c4)c4ccc(C)c(C#N)c4)cc3)cc2)c2ccc(C)c(C#N)c2)cc1C#N` [Compound C-4] displayed a Solubility of 23.1 g.

`CCc1ccc([S+](c2ccc(Sc3ccc([S+](c4ccc(CC)c(C(F)(F)F)c4)c4ccc(CC)c(C(F)(F)F)c4)cc3)cc2)c2ccc(CC)c(C(F)(F)F)c2)cc1C(F)(F)F` [Compound C-6] came in with a Solubility of 25.3 g.

Regarding `Cc1ccc([S+](c2ccc(Oc3ccc([S+](c4ccc(C)c(F)c4)c4ccc(C)c(F)c4)cc3)cc2)c2ccc(C)c(F)c2)cc1F` [Compound C-8], the Solubility is recorded as 23.7 g.

As for `Cc1ccc([S+](c2ccc(/C=C/c3ccc([S+](c4ccc(C)c(F)c4)c4ccc(C)c(F)c4)cc3)cc2)c2ccc(C)c(F)c2)cc1F` [Compound C-7], the Solubility came out at 22.4 g.

As to `CCCCC1(CCCC)c2cc([S+](c3ccc(C)c(F)c3)c3ccc(C)c(F)c3)ccc2-c2ccc([S+](c3ccc(C)c(F)c3)c3ccc(C)c(F)c3)cc21` [Compound C-22], the Solubility was 24.5 g.

In turn, `Cc1ccc([S+](c2ccc(-c3ccc([S+](c4ccc(C)c(F)c4)c4ccc(C)c(F)c4)cc3)cc2)c2ccc(C)c(F)c2)cc1F` [Compound C-10] displayed a Solubility of 21.4 g.

The compound `Cc1ccc([S+](c2ccc(Sc3ccc([S+](c4ccc(C)c(C#N)c4)c4ccc(C)c(C#N)c4)cc3C)c(C)c2)c2ccc(C)c(C#N)c2)cc1C#N` [Compound C-13] gave a Solubility of 24.9 g.

The compound `CC(C)c1ccc([S+](c2ccc(-c3ccc([S+](c4ccc(C(C)C)c(F)c4)c4ccc(C(C)C)c(F)c4)cc3)cc2)c2ccc(C(C)C)c(F)c2)cc1F` [Compound C-19] showed a Solubility of 24.8 g.

On to `Cc1ccc([S+](c2ccccc2)c2ccc(Sc3ccc([S+](c4ccccc4)c4ccc(C)c(C(F)(F)F)c4)cc3)cc2)cc1C(F)(F)F` (centres unmarked) [Compound C-20], for which the Solubility came to 22.1 g.

Compound `Cc1ccc([S+](c2ccc(Sc3ccc([S+](c4ccc(C)c([N+](=O)[O-])c4)c4ccc(C)c([N+](=O)[O-])c4)cc3)cc2)c2ccc(C)c([N+](=O)[O-])c2)cc1[N+](=O)[O-]` [Compound C-3] yielded a Solubility of 23.4 g.

For the compound `COc1ccc([S+](c2ccccc2)c2ccc(Sc3ccc([S+](c4ccccc4)c4ccc(OC)c(F)c4)cc3)cc2)cc1F` (centres unmarked) [Compound C-18], the Solubility is 20.7 g.

Compound `CCn1c2cc([SH](c3ccc(C)c(C(F)(F)F)c3)c3ccc(C)c(C(F)(F)F)c3)ccc2c2ccc([SH](c3ccc(C)c(C(F)(F)F)c3)c3ccc(C)c(C(F)(F)F)c3)cc21` [Compound C-25] yielded a Solubility of 22.8 g.

For `Cc1ccc([S+](c2ccc(Cc3ccc([S+](c4ccc(C)c([N+](=O)[O-])c4)c4ccc(C)c([N+](=O)[O-])c4)cc3)cc2)c2ccc(C)c([N+](=O)[O-])c2)cc1[N+](=O)[O-]` [Compound C-9], the Solubility is 23.1 g.

Compound `Cc1ccc([S+](c2ccc(C)c(F)c2)c2ccc3c(c2)Cc2cc([S+](c4ccc(C)c(F)c4)c4ccc(C)c(F)c4)ccc2-3)cc1F` [Compound C-21] showed a Solubility of 23.4 g.

`Cc1ccc([S+](c2ccc(Sc3ccc([S+](c4ccc(C)c(C(F)(F)F)c4)c4ccc(C)c(C(F)(F)F)c4)cc3)cc2)c2ccc(C)c(C(F)(F)F)c2)cc1C(F)(F)F` [Compound C-2]: the Solubility is 24.3 g.

On to `CCc1ccc([S+](c2ccc(Sc3ccc([S+](c4ccc(CC)c(F)c4)c4ccc(CC)c(F)c4)cc3)cc2)c2ccc(CC)c(F)c2)cc1F` [Compound C-5], for which the Solubility is on record as 25.1 g.

Consider `Fc1cc([S+](c2ccc(Sc3ccc([S+](c4ccc(Cc5ccccc5)c(F)c4)c4ccc(Cc5ccccc5)c(F)c4)cc3)cc2)c2ccc(Cc3ccccc3)c(F)c2)ccc1Cc1ccccc1` [Compound C-16], for which the Solubility is reported as 24.4 g.
